Measured values reported in US9775915B2, “Trioxacarcins, trioxacarcin-antibody conjugates, and uses thereof” (President and Fellows of Harvard College, priority 2012, dated 2017).
“Also recorded” adds a separate entry of the source.

Experiments:
[1] = tested on: H460, T-47D, HEK293, N87, MDA-MB-361/DYT2, HT-29, HL-60 and HEL 92.1.7 cells; assay: Growth inhibition (GI50) comparison of trioxacarcins, FIG. 10 cell line panel; assay type: cell-based; conditions: structure-activity comments on FIG. 10
Procedure: Cell Proliferation Assay. A suspension of H460 cells (3000 cells/well) in growth medium was seeded onto a 96-well plate. The 96-well plate was incubated for 24 h at 37° C. Stock solutions of each compound were diluted serially and the resulting solutions were administrated to cells to achieve final concentrations of 110 pM to 250 nM (trioxacarcin A) or 1.1 nM to 2.5 μM (all other compounds). After incubating at 37° C. for 72 h, 20 μL of resazurin solution (Promega CellTiter-Blue® Cell Viability Assay) was added to each well. After incubating at 37° C. for 2.0 h, the fluorescence (560 nm excitation/590 nm emission) was recorded using a microplate reader (SpectraMax PLUS^384) as a measure of viable cells. Percent growth inhibition was calculated for each well, based upon the following formula: Percent growth inhibition=100×(S−B0)/(Bt−B0); where S is the sample fluorescence, Bt is the average fluorescence for a vehicle-treated population of cells at the completion of the assay, and B0 is the average fluorescence for an untreated population of cells at the beginning of the assay. The average percent inhibition at each concentration was plotted against log(concentration), and a curve fit was generated using a four-parameter logistic equation. GI50 values were computed to reflect the concentrations at which the resulting curves pass through 50% inhibition. […]

[2] = tested on: lung (LXFL 529L, H-460), mammary (MCF-7), and CNS (SF-268) cancer cell lines; conditions: human cancer cell lines; Maskey et al. 2004; cited from earlier work
[3] = tested on: H460 cells; assay: Cell proliferation assay (CellTiter-Blue resazurin), H460 cells; assay type: cell-based; conditions: 72 h incubation
Procedure: H460 cells were purchased from American Type Culture Collection (ATCC).
A suspension of H460 cells (3000 cells/well) in growth medium was seeded onto a 96-well plate. The 96-well plate was incubated for 24 h at 37° C. […] After incubating at 37° C. for 72 h, 20 μL of resazurin solution (Promega CellTiter-Blue® Cell Viability Assay) was added to each well. […] Percent growth inhibition was calculated for each well, based upon the following formula: Percent growth inhibition=100×(S−B0)/(Bt−B0); where S is the sample fluorescence, Bt is the average fluorescence for a vehicle-treated population of cells at the completion of the assay, and B0 is the average fluorescence for an untreated population of cells at the beginning of the assay. The average percent inhibition at each concentration was plotted against log(concentration), and a curve fit was generated using a four-parameter logistic equation.

[4] = Chemical stability (base, aqueous or alcoholic solvents); assay type: physicochemical; conditions: basic conditions in aqueous or alcoholic solvents

Row | GI50 [3] | stability under basic conditions [4] | SMILES | antiproliferative activity (in words, FIG. 10) [1] | IC70 [2]
1 |  |  | COc1c2c(c(O)c3c4c(c(C)cc13)[C@@H]1O[C@@]3(C(OC)OC)O[C@@H]1[C@@](O)(O4)[C@@]31CO1)C(=O)[C@@H](O)C[C@@H]2O[C@H]1C[C@@](C)(O)[C@H](OC(C)=O)[C@H](C)O1 [DC-45-A1] | highly potent antiproliferative agents | 
2 | 0.85 ± 0.36 nM | unstable | COc1c2c(c(O)c3c4c(c(C)cc13)[C@@H]1O[C@@]3(C(OC)OC)O[C@@H]1[C@@](O[C@H]1C[C@@H](O)[C@@](O)(C(C)=O)[C@H](C)O1)(O4)[C@@]31CO1)C(=O)[C@@H](O)C[C@@H]2O[C@H]1C[C@@](C)(O)[C@H](OC(C)=O)[C@H](C)O1 [trioxacarcin A] |  | subnanomolar; also recorded: subnanmolar
